Experimental data reported in ChEMBL document CHEMBL1201862, “PubChem BioAssay data set” (2004).
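Five compound concentrations were applied to cells in 96-well plates for 48 hours; endpoints were derived by simple linear interpolation of the resulting dose-response curve. The concentration for 50% growth inhibition is given as GI50.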 Activity calls are given as the source filed them. Rule as the data show it: active = GI50 up to about 1.1 µM and inactive = higher.

What was measured:
Assay in all cases: growth of human tumour cells (NCI), 48 h
SW-620 = tested on: SW-620
MDA-MB-435 = tested on: MDA-MB-435
ACHN = tested on: ACHN
K562 = tested on: K562
RXF 393 = tested on: RXF 393
SNB-19 = tested on: SNB-19
UACC-62 = tested on: UACC-62
UACC-257 = tested on: UACC-257
SK-OV-3 = tested on: SK-OV-3
A498 = tested on: A498
NCI-H226 = tested on: NCI-H226
MDA-MB-231 = tested on: MDA-MB-231
SK-MEL-28 = tested on: SK-MEL-28
DU-145 = tested on: DU-145
SNB-75 = tested on: SNB-75
NCI-H23 = tested on: NCI-H23
KM12 = tested on: KM12
COLO 205 = tested on: COLO 205
SK-MEL-2 = tested on: SK-MEL-2

Measured: GI50

CC1=NN(c2nc(N)nc(CCl)n2)CC1
inactive: SW-620 23.3 µM | MDA-MB-435 32 µM | ACHN 17.3 µM | K562 18.2 µM | RXF 393 49.8 µM | SNB-19 > 100 µM | UACC-62 15.2 µM | UACC-257 69.5 µM | SK-OV-3 36.6 µM | A498 42.3 µM | NCI-H226 30.5 µM | MDA-MB-231 40 µM | SK-MEL-28 22.8 µM | DU-145 56.4 µM | SNB-75 18.6 µM | NCI-H23 19.3 µM | KM12 16.4 µM | COLO 205 18.5 µM | SK-MEL-2 26.6 µM

O=C1OC(=O)C2CCCC3CCCC1C32 (stereo not drawn)
inactive: SW-620 > 100 µM | MDA-MB-435 > 100 µM | ACHN > 100 µM | K562 > 100 µM | RXF 393 > 100 µM | SNB-19 > 100 µM | UACC-62 > 100 µM | UACC-257 > 100 µM | SK-OV-3 > 100 µM | A498 > 100 µM | NCI-H226 > 100 µM | MDA-MB-231 > 100 µM | SK-MEL-28 > 100 µM | DU-145 > 100 µM | SNB-75 > 100 µM | NCI-H23 > 100 µM | KM12 > 100 µM | COLO 205 > 100 µM | SK-MEL-2 > 100 µM

COCn1c(C)c(C)c2c(=O)oc(C)nc21
inactive: SW-620 > 100 µM | MDA-MB-435 > 100 µM | ACHN > 100 µM | K562 > 100 µM | RXF 393 > 100 µM | SNB-19 > 100 µM | UACC-62 > 100 µM | UACC-257 > 100 µM | SK-OV-3 > 100 µM | A498 > 100 µM | NCI-H226 > 100 µM | MDA-MB-231 > 100 µM | SK-MEL-28 > 100 µM | DU-145 > 100 µM | SNB-75 83.4 µM | NCI-H23 > 100 µM | KM12 > 100 µM | COLO 205 > 100 µM | SK-MEL-2 > 100 µM

CN(C)CCCNC(=O)CCNC(=O)c1cc(NC(=O)c2cc(NC(=O)c3cc(NC(=O)c4nccn4C)cn3C)cn2C)cn1C
inactive: SW-620 > 100 µM | MDA-MB-435 > 100 µM | ACHN > 100 µM | K562 > 100 µM | RXF 393 > 100 µM | SNB-19 29.6 µM | UACC-62 > 100 µM | UACC-257 > 100 µM | SK-OV-3 > 100 µM | A498 > 100 µM | NCI-H226 > 100 µM | MDA-MB-231 > 100 µM | SK-MEL-28 > 100 µM | DU-145 > 100 µM | SNB-75 54.7 µM | NCI-H23 > 100 µM | KM12 > 100 µM | COLO 205 20 µM | SK-MEL-2 > 100 µM

C=CCN1C(=O)CC(=O)N(NC2=NNC3(C(=O)N2)c2ccccc2-c2ccccc23)C1=S
inactive: SW-620 38.5 µM | MDA-MB-435 44.5 µM | ACHN 34.4 µM | K562 31.5 µM | RXF 393 27.7 µM | SNB-19 48.8 µM | UACC-62 28.5 µM | UACC-257 27.5 µM | SK-OV-3 42.2 µM | A498 34.8 µM | NCI-H226 13.8 µM | MDA-MB-231 > 100 µM | SK-MEL-28 49.9 µM | DU-145 44.5 µM | SNB-75 48.2 µM | NCI-H23 29.2 µM | COLO 205 21.7 µM | SK-MEL-2 25.2 µM

OC(CCN1CCN(CCOC(c2ccccc2)c2ccccc2)CC1)c1ccccc1 (stereo not drawn)
inactive: SW-620 31.1 µM | MDA-MB-435 18.5 µM | ACHN 27 µM | RXF 393 19.9 µM | SNB-19 32.4 µM | UACC-62 11.5 µM | UACC-257 17.9 µM | SK-OV-3 35.8 µM | A498 2.4 µM | NCI-H226 27.9 µM | MDA-MB-231 15.9 µM | SK-MEL-28 17.9 µM | DU-145 39.7 µM | SNB-75 40.9 µM | NCI-H23 24.7 µM | KM12 20.9 µM | COLO 205 14.5 µM | SK-MEL-2 15.8 µM

COC1CCC(=O)N1CN(C(C)=O)c1ccc(C)cc1 (stereo not drawn)
inactive: SW-620 > 100 µM | MDA-MB-435 > 100 µM | ACHN > 100 µM | K562 > 100 µM | RXF 393 > 100 µM | SNB-19 > 100 µM | UACC-62 > 100 µM | UACC-257 > 100 µM | SK-OV-3 > 100 µM | A498 > 10 µM | NCI-H226 > 100 µM | MDA-MB-231 > 100 µM | SK-MEL-28 > 100 µM | DU-145 > 100 µM | SNB-75 > 100 µM | NCI-H23 > 100 µM | KM12 > 100 µM | COLO 205 > 100 µM | SK-MEL-2 > 100 µM

Cc1cc(C)nc(NC(=S)Nc2ccc(Cl)cc2)c1
inactive: SW-620 > 100 µM | MDA-MB-435 > 100 µM | K562 > 100 µM | RXF 393 36.1 µM | SNB-19 > 100 µM | UACC-62 > 100 µM | UACC-257 > 100 µM | SK-OV-3 23.4 µM | A498 48.3 µM | NCI-H226 27.8 µM | MDA-MB-231 74.8 µM | SK-MEL-28 > 100 µM | DU-145 > 100 µM | SNB-75 11.9 µM | KM12 53.6 µM | COLO 205 > 100 µM | SK-MEL-2 > 100 µM

CCc1c(Cl)c(C)cc(O)c1Cl
inactive: SW-620 20.6 µM | MDA-MB-435 35.6 µM | ACHN 22.1 µM | K562 33.7 µM | RXF 393 23.4 µM | SNB-19 38.7 µM | UACC-62 32.6 µM | UACC-257 29.6 µM | SK-OV-3 > 100 µM | A498 18.8 µM | NCI-H226 20.9 µM | MDA-MB-231 40.7 µM | SK-MEL-28 58.3 µM | DU-145 > 100 µM | SNB-75 56.8 µM | NCI-H23 34.8 µM | KM12 22.6 µM | COLO 205 43.7 µM | SK-MEL-2 20.8 µM

C(#CP(c1ccccc1)c1ccccc1)P(C#CP(c1ccccc1)c1ccccc1)c1ccccc1
inactive: SW-620 > 100 µM | MDA-MB-435 > 100 µM | ACHN > 100 µM | K562 > 100 µM | RXF 393 > 100 µM | SNB-19 > 100 µM | UACC-62 > 100 µM | UACC-257 > 100 µM | SK-OV-3 2.77 µM | A498 > 100 µM | NCI-H226 > 100 µM | MDA-MB-231 > 100 µM | SK-MEL-28 > 100 µM | DU-145 > 100 µM | SNB-75 > 100 µM | KM12 > 100 µM | COLO 205 > 100 µM | SK-MEL-2 > 100 µM

Nc1ncnc2c1ccn2COC(CO)CO
inactive: SW-620 > 100 µM | MDA-MB-435 62.8 µM | ACHN > 100 µM | K562 > 100 µM | RXF 393 49.4 µM | SNB-19 > 100 µM | UACC-62 37.4 µM | UACC-257 > 100 µM | SK-OV-3 > 100 µM | A498 > 100 µM | NCI-H226 46.2 µM | MDA-MB-231 > 100 µM | SK-MEL-28 > 100 µM | DU-145 > 100 µM | SNB-75 > 100 µM | NCI-H23 > 100 µM | KM12 > 100 µM | SK-MEL-2 > 100 µM
